Like-named read-outs stand apart in the source and are kept apart here.
Experiments:
[1] = test system: advanced ovarian or breast cancer associated with a germline BRCA1/2 mutation; design: method as in Drew et al, 2016; settings: single agent, ref Drew et al, 2016, cited from earlier work
clinical = settings: human, in vivo; for half-life: t1/2
Experimental: On cycle 1 days −10, −5, 1, and 14, plasma samples were obtained from all patients before rucaparib dosing and at 15 and 30 min, and at 1, 1.5, 2.5, 4, 6, 10, and 24 h after the start of the rucaparib administration (i.v. infusion (day −10) or oral (days −5, 1, and 14)). On cycle 1 days −10 and −5, samples were also obtained 48 h after the start of rucaparib administration. Rucaparib concentration was determined using liquid chromatography with tandem mass spectrometry.
Plasma clearance or apparent plasma clearance and steady-state volume of distribution were calculated for rucaparib. The oral bioavailability of rucaparib was calculated as the ratio of dose-normalised AUC0–t or AUCinf (data permitting) determined using oral rucaparib PK data collected on cycle 1 day −5 to that determined using the i.v. PK data collected on cycle 1 day −10. Pharmacokinetic parameters were summarised with the geometric mean and the coefficient of variation (CV). The ratio of Cmax and AUC0–24 of rucaparib administered in combination with chemotherapies to those of rucaparib alone was calculated and summarised, with mean and CV% to evaluate the effect of chemotherapies on the PK of rucaparib for both the i.v. dose (day −10) and oral dose (day −5).
The oral bioavailability of rucaparib was calculated as the ratio of dose-normalised AUC0-t or AUCinf (data permitting) determined using oral rucaparib PK data collected on cycle 1 day –5 to that determined using the intravenous PK data collected on cycle 1 day –10. The tmax was summarised with medians and ranges. The accumulation ratio after multiple oral rucaparib dosing (once daily) was assessed as the ratio of the AUC0-24 determined using PK collected on cycle 1 day 14 to the AUC0-24 after the cycle 1 day –5 lead-in dose. The ratio of the Cmax on day 14 to the Cmax on day –5 was also calculated. Additionally, the ratio of the AUC0-24 on cycle 1 day 14 to the AUCinf after the cycle 1 day –5 lead-in dose was calculated as an indication for any time-dependent change in rucaparib PK.

[2] = test system: patients with advanced solid tumours
Text: This study was an open-label, multicentre, dose-escalating phase I study of rucaparib administered in combination with one of four different standard chemotherapeutic regimens (NCT01009190). […] The primary objective was to assess safety and tolerability and estimate the maximum tolerated dose (MTD) and/or select the recommended phase II dose of rucaparib in combination with chemotherapy. Secondary objectives were to characterise the pharmacokinetics (PK) and assess the antitumour activity of rucaparib when combined with chemotherapy.
Safety assessments included collection of adverse events (AEs) and serious AEs (defined by National Cancer Institute Common Terminology Criteria for Adverse Events version 3.0; [Pedersen et al, 2013]), as well as vital signs, physical examination, 12-lead electrocardiogram, laboratory assessments, and verification of concurrent medications. Safety variables and demographic data were presented descriptively. The safety analysis set included all enrolled patients who started treatment.

In the case of `CNCc1ccc(-c2[nH]c3cc(F)cc4c3c2CCNC4=O)cc1` [rucaparib], the response rate ([1]; continuous oral dosing) is given as 18%, the response rate ([1]; intermittent intravenous (i.v.) dosing) is given as 2% and the clearance (clinical; iv, 12 mg) is given as 270 mL/min. It also gave a half-life (clinical; iv, 12 mg) of 18.7 h, a clearance (clinical; iv, 18 mg) of 307 mL/min and a half-life (clinical; iv, 18 mg) of 16.4 h. For the same compound, the clearance (clinical; iv, 24 mg) was 233 mL/min, the half-life (clinical; iv, 24 mg) was 20.7 h and the clearance (clinical; iv, 27 mg) was 237 mL/min. It also gave a half-life (clinical; iv, 27 mg) of 16.8 h, a clearance (clinical; iv, 40 mg) of 232 mL/min and a half-life (clinical; iv, 40 mg) of 11.9 h. It also gave a half-life (clinical; po, 12 mg) of 18.6 h, a half-life (clinical; po, 36 mg) of 18 h and a half-life (clinical; po, 48 mg) of 20.3 h. The half-life (clinical; po, 72 mg) was 25.1 h, the half-life (clinical; po, 80 mg) was 20.1 h and the half-life (clinical; po, 120 mg) was 13.3 h. It also gave a half-life (clinical; po, 180 mg) of 19.2 h, a half-life (clinical; po, 240 mg) of 17.7 h and a half-life (clinical; po, 360 mg) of 18.2 h. The half-life (clinical) was ~17 h, the “Patients who died of disease progression while on study” value ([2]; across treatment arms, assessed as unrelated to study drug) was 7.1% and the Anaemia ([2]; human, in vivo) was 31 (36.5) n (%). For the same compound, the Asthenia ([2]; human, in vivo) was 3 (3.5) n (%), the Constipation ([2]; human, in vivo) was 22 (25.9) n (%) and the Decreased appetite ([2]; human, in vivo) was 17 (20.0) n (%). For the same compound, the Diarrhoea ([2]; human, in vivo) was 17 (20.0) n (%), the “Discontinued treatment with AE as the primary reason” value ([2]; human, in vivo) was 18.4% and the Fatigue ([2]; human, in vivo) was 45 (52.9) n (%). The “Grade ⩾3 AEs, patients” value ([2]; human, in vivo) was 75.3%, the “Grade ⩾3 anaemia, patients” value ([2]; human, in vivo) was 11.8% and the “Grade ⩾3 dyspnoea, patients” value ([2]; human, in vivo) was 5.9%. The “Grade ⩾3 fatigue, patients” value ([2]; human, in vivo) was 12.9%, the “Grade ⩾3 nausea, patients” value ([2]; human, in vivo) was 7.1% and the “Grade ⩾3 neutropenia, patients” value ([2]; human, in vivo) was 27.1%. The “Grade ⩾3 thrombocytopenia, patients” value ([2]; human, in vivo) was 18.8%, the “Grade ⩾3 vomiting, patients” value ([2]; human, in vivo) was 5.9% and the “Grade ⩾3 γ-glutamyltransferase increased, patients” value ([2]; human, in vivo) was 5.9%. For the same compound, the Lethargy ([2]; human, in vivo) was 15 (17.6) n (%), the Leukopenia ([2]; human, in vivo) was 7 (8.2) n (%) and the Lymphopenia ([2]; human, in vivo) was 6 (7.1) n (%). The Myalgia ([2]; human, in vivo) was 7 (8.2) n (%), the Nausea ([2]; human, in vivo) was 48 (56.5) n (%) and the Neuropathy peripheral ([2]; human, in vivo) was 10 (11.8) n (%). The Neutropenia ([2]; human, in vivo) was 32 (37.6) n (%), the “Patients who discontinued treatment because of AEs” value ([2]; human, in vivo) was 25.9% and the “Patients who discontinued treatment because of neutropenia” value ([2]; human, in vivo) was 3.5%. For the same compound, the “Patients who discontinued treatment because of platinum hypersensitivity” value ([2]; human, in vivo) was 2.4%, the “Patients who discontinued treatment because of thrombocytopenia” value ([2]; human, in vivo) was 2.4% and the Stomatitis ([2]; human, in vivo) was 14 (16.5) n (%). For the same compound, the Thrombocytopenia ([2]; human, in vivo) was 27 (31.8) n (%), the Vomiting ([2]; human, in vivo) was 28 (32.9) n (%) and the “≥1 treatment-related adverse event” value ([2]; human, in vivo) was 80 (94.1) n (%). For the same compound, the Alopecia ([2]; treatment-related, any grade, All patients (N = 85), all arms) was 15 (17.6) n (%).
